Measurements as given in ChEMBL document CHEMBL1140624, “Improved biochemical strategies for targeted delivery of taxoids” (Bioorg Med Chem, 2007).
Values after ≈ are worked out from the molar mass of the structure shown. Active and inactive are the calls of the source. The rule behind the calls is not given here.

Assays:
Mus musculus [1] = organism: Mus musculus; test: Survival of p388 tumor bearing mouse after 30 days; format: functional, organism-based
MDA-MB-231 = test: Cytotoxicity against ERalpha negative human MDA-MB-231 cells; format: functional, cell-based
MCF7 [2] = test: Cytotoxicity against ERalpha positive human MCF7 cells; format: functional, cell-based; conditions: for EC50: read-out: ED50 (the source's name)
[3] = Aqueous solubility of the compound; format: physicochemical; conditions: aqueous solution
PC-3 = test: Cytotoxicity against ERbeta positive human PC3 cells; format: functional, cell-based
A2780 = test: Cytotoxicity against ERbeta negative human A2780 cells; format: functional, cell-based
OVCAR-3 [4] = test: Cytotoxicity against human OVCAR-3 cells; format: functional, cell-based
[5] = Cytotoxicity against human IGROV cells; format: functional, cell-based
OVCAR-3 [6] = test: Cytotoxicity against human OVCAR-3 cells in presence of beta-glucuronidase; format: functional, cell-based
LoVo [7] = test: Cytotoxicity against human LoVo cells in presence of beta-glucuronidase; format: functional, cell-based
HT-29 = test: Cytotoxicity against human HT29 cells; format: functional, cell-based
[8] = tested on: M19 melanoma cell line (human); test: Cytotoxicity against human M19 melanoma cells
[9] = Half life in presence of 10 uM beta-glucuronidase assessed as taxol release at 100 uM; format: ADME
[10] = Half life in DTT buffer assessed as taxol release; format: ADME
L2987 [11] = test: Cytotoxicity against human L2987 cells; format: functional, cell-based
L2987 [12] = test: Cytotoxicity against human L2987 cells in presence of DTT; format: functional, cell-based
[13] = Half life in presence of 50 ug/mL beta-glucuronidase assessed as taxol release; format: ADME
LoVo [14] = test: Ratio of IC50 of drug for human LoVo cells to IC50 of taxol for human LoVo cells; format: functional
[15] = Half life in PBS buffer assessed as taxol circulation time at pH 7; format: ADME
MCF7 [16] = test: Cytotoxicity against human MCF7 cells; format: functional, cell-based
EVSA-T = test: Cytotoxicity against human EVSA-T cells; format: functional, cell-based
Mus musculus [17] = organism: Mus musculus; test: Toxicity assessed as reduction of body weight in mouse; format: organism-based; conditions: in vivo
Mus musculus [18] = test: Reduction of body weight in human L2987 xenografted athymic mouse at 125 mg/kg; format: functional; parameters: scale not given: the % may be the effect or the level left
[19] = Half life in presence of 30 ug/mL beta-glucuronidase assessed as taxol release at 30 ug/mL; format: ADME
LoVo [20] = test: Ratio of IC50 of drug for human LoVo cells to IC50 of taxotere for human LoVo cells; format: functional
[21] = Half life at pH 7; format: ADME; conditions: buffer
[22] = Half life at pH 5; format: ADME; conditions: buffer
MCF-7 (Homo sapiens) = test: Ratio of IC50 for ERalpha positive human MCF-7 cells to IC50 for ERalpha negative human MDA-MB-231 cells

CC(=O)O[C@H]1C(=O)[C@@]2(C)[C@H]([C@H](OC(=O)c3ccccc3)[C@]3(O)C[C@H](OC(=O)[C@H](O)[C@@H](NC(=O)c4ccccc4)c4ccccc4)C(C)=C1C3(C)C)[C@]1(OC(C)=O)CO[C@@H]1C[C@@H]2O [PACLITAXEL]
Activity (Mus musculus [1]): Toxic
IC50 (MDA-MB-231): 4.5 nM
EC50 (MCF7 [2]): 50 ng/mL (≈ 0.0586 µM)
solubility [3]: 10 µg/mL (≈ 11.7 µM)
IC50 (PC-3): 77 nM
IC50 (A2780): 25 nM
IC50 (OVCAR-3 [4]): 0.2 nM
IC50 [5]: 10 ng/mL (≈ 0.0117 µM)
Activity (OVCAR-3 [6]): inactive
IC50 (LoVo [7]): 90 nM
IC50 (HT-29): 30 ng/mL (≈ 0.0351 µM)
IC50 [8]: < 3 ng/mL

CC(=O)O[C@H]1C(=O)[C@@]2(C)[C@H]([C@H](OC(=O)c3ccccc3)[C@]3(O)C[C@H](OC(=O)[C@H](OC(=O)CCc4ccc(NC(=O)O[C@@H]5O[C@H](C(=O)[O-])[C@@H](O)[C@H](O)[C@H]5O)cc4)[C@@H](NC(=O)c4ccccc4)c4ccccc4)C(C)=C1C3(C)C)[C@]1(OC(C)=O)CO[C@@H]1C[C@@H]2O.[Na+]
t1/2 [9]: 45 min
IC50 (OVCAR-3 [4]): 27 nM
IC50 (OVCAR-3 [6]): 1.1 nM

CC(=O)O[C@H]1C(=O)[C@@]2(C)[C@H]([C@H](OC(=O)c3ccccc3)[C@]3(O)C[C@H](OC(=O)[C@H](OC(=O)C(C)(C)CCSS[C@@H]4C[C@H](CO)[C@@H](O)[C@H](O)[C@H]4O)[C@@H](NC(=O)c4ccccc4)c4ccccc4)C(C)=C1C3(C)C)[C@]1(OC(C)=O)CO[C@@H]1C[C@@H]2O
t1/2 [10]: 12 min
IC50 (L2987 [11]): 5700 nM
IC50 (L2987 [12]): 200 nM

CC(=O)O[C@H]1C(=O)[C@@]2(C)[C@H]([C@H](OC(=O)c3ccccc3)[C@]3(O)C[C@H](OC(=O)[C@H](OC(=O)Cc4ccc(NC(=O)O[C@@H]5O[C@H](C(=O)O)[C@@H](O)[C@H](O)[C@H]5O)cc4)[C@@H](NC(=O)c4ccccc4)c4ccccc4)C(C)=C1C3(C)C)[C@]1(OC(C)=O)CO[C@@H]1C[C@@H]2O
IC50 (OVCAR-3 [4]): 0.23 nM
IC50 (OVCAR-3 [6]): 0.23 nM

CC(=O)O[C@H]1C(=O)[C@@]2(C)[C@H]([C@H](OC(=O)c3ccccc3)[C@]3(O)C[C@H](OC(=O)[C@H](OC(=O)N(C)CCN(C)C(=O)OCc4ccc(O)c(N)c4)[C@@H](NC(=O)c4ccccc4)c4ccccc4)C(C)=C1C3(C)C)[C@]1(OC(C)=O)CO[C@@H]1C[C@@H]2O
t1/2 [13]: 13 min

Cn1c(=O)oc2ccc([N+](=O)[O-])cc21
Ratio IC50 (LoVo [14]): 3000
Activity (LoVo [7]): inactive

CC(=O)O[C@H]1C(=O)[C@@]2(C)[C@H]([C@H](OC(=O)c3ccccc3)[C@]3(O)C[C@H](OC(=O)[C@H](OC(=O)C[C@H](O)C(=O)O)[C@@H](NC(=O)c4ccccc4)c4ccccc4)C(C)=C1C3(C)C)[C@]1(OC(C)=O)CO[C@@H]1C[C@@H]2O
solubility [3]: 200 µg/mL (≈ 206 µM)
t1/2 [15]: > 1440 min
IC50 (MCF7 [16]): < 3 ng/mL
IC50 (EVSA-T): < 3 ng/mL

CC(=O)O[C@H]1C(=O)[C@@]2(C)[C@H]([C@H](OC(=O)c3ccccc3)[C@]3(O)C[C@H](OC(=O)[C@H](OC(=O)CN(C)CC(=O)NCCOCCOCCOCCNC(=O)CCC(NC(=O)c4ccc(NCc5cnc6nc(N)[nH]c(=O)c6n5)cc4)C(=O)O)[C@@H](NC(=O)c4ccccc4)c4ccccc4)C(C)=C1C3(C)C)[C@]1(OC(C)=O)CO[C@@H]1C[C@@H]2O (stereo partly drawn)
Activity (Mus musculus [17]): Non-toxic

CC(=O)O[C@H]1C(=O)[C@@]2(C)[C@H]([C@H](OC(=O)c3ccccc3)[C@]3(O)C[C@H](OC(=O)[C@H](OC(=O)C(C)(C)CCSSC[C@H](C)C(=O)N4CCC[C@@H]4C(=O)O)[C@@H](NC(=O)c4ccccc4)c4ccccc4)C(C)=C1C3(C)C)[C@]1(OC(C)=O)CO[C@@H]1C[C@@H]2O
Activity (Mus musculus [18]): 10%
t1/2 [10]: 25 min

CC(=O)O[C@H]1C(=O)[C@@]2(C)[C@H]([C@H](OC(=O)c3ccccc3)[C@]3(O)C[C@H](OC(=O)[C@H](OC(=O)N(C)CCN(C)C(=O)OCc4ccc(O[C@@H]5O[C@H](C(=O)O)[C@@H](O)[C@H](O)[C@H]5O)c([N+](=O)[O-])c4)[C@@H](NC(=O)OC(C)(C)C)c4ccccc4)C(C)=C1C3(C)C)[C@]1(OC(C)=O)CO[C@@H]1C[C@@H]2O
t1/2 [19]: 10 min
Activity (LoVo [7]): inactive
Ratio IC50 (LoVo [20]): 337

CC(=O)O[C@H]1C(=O)[C@@]2(C)[C@H]([C@H](OC(=O)c3ccccc3)[C@]3(O)C[C@H](OC(=O)[C@H](OC(=O)N(C)c4cc([N+](=O)[O-])ccc4O[C@@H]4O[C@H](C(=O)O)[C@@H](O)[C@H](O)[C@H]4O)[C@@H](NC(=O)c4ccccc4)c4ccccc4)C(C)=C1C3(C)C)[C@]1(OC(C)=O)CO[C@@H]1C[C@@H]2O
Ratio IC50 (LoVo [14]): 722
IC50 (LoVo [7]): 100 nM

CC(=O)O[C@H]1C(=O)[C@@]2(C)[C@H]([C@H](OC(=O)c3ccccc3)[C@]3(O)C[C@H](OC(=O)[C@H](OC(=O)CC(C)(C)CNC(=O)O[C@@H]4O[C@H](C(=O)[O-])[C@@H](O)[C@H](O)[C@H]4O)[C@@H](NC(=O)c4ccccc4)c4ccccc4)C(C)=C1C3(C)C)[C@]1(OC(C)=O)CO[C@@H]1C[C@@H]2O.[Na+]
t1/2 [9]: 120 min
IC50 (OVCAR-3 [4]): 20 nM
IC50 (OVCAR-3 [6]): 0.6 nM

CC(=O)O[C@H]1C(=O)[C@@]2(C)[C@H]([C@H](OC(=O)c3ccccc3)[C@]3(O)C[C@H](OC(=O)[C@H](OC(=O)COCC(=O)NCCOCCOCCOCCNC(=O)CCC(NC(=O)c4ccc(NCc5cnc6nc(N)[nH]c(=O)c6n5)cc4)C(=O)O)[C@@H](NC(=O)c4ccccc4)c4ccccc4)C(C)=C1C3(C)C)[C@]1(OC(C)=O)CO[C@@H]1C[C@@H]2O (stereo partly drawn)
EC50 (MCF7 [2]): 3.3 ng/mL (≈ 0.00211 µM)
EC50 (HT-29; read-out: ED50 (the source's name)): 2.9 ng/mL (≈ 0.00185 µM)
half-life [21]: 40 h
half-life [22]: > 12.5 days

CC(=O)O[C@H]1C(=O)[C@@]2(C)[C@H]([C@H](OC(=O)c3ccccc3)[C@]3(O)C[C@H](OC(=O)C(OC(=O)N(C)CCN(C)C(=O)OCc4ccc(O[C@@H]5O[C@H](C(=O)O)[C@@H](O)[C@H](O)[C@H]5O)c(N)c4)[C@@H](NC(=O)c4ccccc4)c4ccccc4)C(C)=C1C3(C)C)[C@]1(OC(C)=O)CO[C@@H]1C[C@@H]2O (stereo partly drawn)
t1/2 [19]: 10 min
Ratio IC50 (LoVo [14]): 153
Activity (LoVo [7]): inactive

CC(=O)O[C@H]1C(=O)[C@@]2(C)[C@H]([C@H](OC(=O)c3ccccc3)[C@]3(O)C[C@H](OC(=O)[C@H](OC(=O)N(C)CCN(C)C(=O)OCc4ccc(O[C@@H]5O[C@H](C(=O)O)[C@@H](O)[C@H](O)[C@H]5O)c(N)c4)[C@@H](NC(=O)OC(C)(C)C)c4ccccc4)C(C)=C1C3(C)C)[C@]1(OC(C)=O)CO[C@@H]1C[C@@H]2O
t1/2 [19]: 10 min
Ratio IC50 (LoVo [14]): 187
Activity (LoVo [7]): inactive

CC(=O)O[C@H]1C(=O)[C@@]2(C)[C@H]([C@H](OC(=O)c3ccccc3)[C@]3(O)C[C@H](OC(=O)[C@@H](OC(=O)CCC(=O)O[C@@H]4C[C@]5(C)[C@@H](O)CC[C@H]5[C@@H]5CCc6cc(O)ccc6[C@H]54)[C@@H](NC(=O)c4ccccc4)c4ccccc4)C(C)=C1C3(C)C)[C@]1(OC(C)=O)CO[C@@H]1C[C@@H]2O
IC50 (MDA-MB-231): 304 nM
IC50 (MCF7 [2]): 103 nM
IC50 (PC-3): 68 nM
IC50 (A2780): 1900 nM
Ratio IC50 (MCF-7 (Homo sapiens)): 3
